The values below are quoted from earlier work in patent US20230285259A1, “METHOD FOR DYEING KERATINOUS MATERIAL, COMPRISING THE USE OF AN ORGANOSILICON COMPOUND, A DERIVATIVE OF ALKYLATED SILANOL, A COLORING COMPOUND AND A POST-TREATMENT AGENT” (Henkel AG & Co. KGaA, priority 2020, published 2023).

Molecules are shown by their SMILES.

For the data set the following is noted: 25° C.

As to `O=[N+]([O-])c1cc([N+](=O)[O-])c2ccc(S(=O)(=O)O)cc2c1O` [Acid Yellow 9, 8-hydroxy-5,7-dinitro-2-naphthalenesulfonic acid], the solubility in water result was “above 40 g/L”. For `CCN(Cc1cccc(S(=O)(=O)O)c1)c1ccc(C(=C2C=CC(=[N+](CC)Cc3cccc(S(=O)(=O)O)c3)C=C2)c2ccccc2S(=O)(=O)[O-])cc1` [Acid Blue 9], the solubility in water result is on record as “more than 20 wt. %”. Regarding `O=C(O)C1=NN(c2ccc(S(=O)(=O)O)cc2)C(=O)C1N=Nc1ccc(S(=O)(=O)O)cc1` (stereo not shown) [Acid Yellow 23, 4,5-dihydro-5-oxo-1-(4-sulfophenyl)-4-((4-sulfophenyl)azo)-1H-pyrazole-3-carboxylic acid], the “solubility in water (in words)” value was “highly soluble”.

Turning to `O=S(=O)(O)c1ccc(N=Nc2c(O)ccc3ccccc23)cc1` [Acid Orange 7, 4-[(2-hydroxy-1-naphthyl)azo]benzene sulphonate], the solubility in water entry was “more than 7 g/L”.
